Source: patent US5641804A, “Fungicidal compound comprising a cyclic polylactone” (Novo Nordisk A/S, priority 1992, dated 1997)
In brackets after ≈: the same amount, converted by molar mass.

Assays:
[1] = system: Phoma lingam; test: Agar well inhibition zone, Phoma lingam (Pl); assay type: cell-based; design: key to inhibition zone P1: clear; diffuse; very diffuse; +: very weak; conditions: 15 μl per well, 3 days at 25° C.; for zone of inhibition at 1000 µg/mL: 1.0 mg/ml
Method: Phoma lingam (Pl) canker and dry rot
(§1) Each of the above mentioned 9 pathogens were separately innoculated into 100 ml of potato dextrose (PD) bouillon and shaken at 200 rpm at 25° C. for 7 days. The mycelium was harvested and homogenized for about 10 seconds in a Warring blender and 1-5 ml of the blended mycelium was transferred to petri dishes with a diameter of 14 cm. […] 20 ml of potato dextrose agar (PDA) having a temperature of 45° C. were poured into each of the petri dishes and thorougly mixed with the blended mycelium present therein. When the agar had solidified, wells of a diameter of 4 mm were punched in the agar, and 15 μl of test solutions containing varicus concentrations of compound Ia, Ib and IIa dissolved in ethanol was applied to each well. The plates were incubated for three days at 25° C. and the inhibition zones measured (in mm). […]

[2] = system: Sclerotinia sclerotiorum; test: Agar well inhibition zone, Sclerotinia sclerotiorum (Ss); assay type: cell-based; design: key to inhibition zone Ss: clear; diffuse; very diffuse; +: very weak; conditions: 15 μl per well, 3 days at 25° C.
Method: Sclerotinia sclerotiorum (Ss) white mould disease, stem rot
as §1

[3] = system: mouse peritoneal macrophage; test: Mouse peritoneal macrophage assay, cellular ATP (viability); assay type: cell-based
[4] = system: Pyrenophora teres; test: Agar well inhibition zone, Pyrenophora teres (Pt); assay type: cell-based; design: key to inhibition zone Pt: clear; diffuse; very diffuse; +: very weak; conditions: 15 μl per well, 3 days at 25° C.; for zone of inhibition at 500 µg/mL / zone of inhibition at 1000 µg/mL / zone of inhibition at 100 µg/mL: Pyrenophora teres, 72 h; for zone of inhibition at 500 µg/mL: 0.5 mg/ml; for zone of inhibition at 1000 µg/mL: 1.0 mg/ml
Method: Pyrenophora teres (Pt) net blotch disease
as §1

[5] = system: Phoma betae; test: Agar well inhibition zone, Phoma betae (Pb); assay type: cell-based; conditions: 15 μl per well, 3 days at 25° C.; for zone of inhibition at 500 µg/mL: 0.5 mg/ml
Method: Phoma betae (Pb) seedling black rot, black leg
as §1

[6] = system: Monilinia fructigena; test: Agar well inhibition zone, Monilinia fructigena (Mf); assay type: cell-based; conditions: 15 μl per well, 3 days at 25° C.; for zone of inhibition at 500 µg/mL: 0.5 mg/ml; for zone of inhibition at 1000 µg/mL: 1.0 mg/ml
Method: Monilinia fructigena (Mf) brown rot, fruit rot
as §1

[7] = system: Botrytis cinerea; test: Agar well inhibition zone, Botrytis cinerea, plates made from spores (Bc2); assay type: cell-based; conditions: for appearance of Bc zones / time of incubation after which Bc zones could be seen: Bc plates; for zone of inhibition at 500 µg/mL: 0.5 mg/ml; for zone of inhibition at 1000 µg/mL: 1.0 mg/ml
Method: (§2) Botrytis cinerea (Bc) grey mould
(§3) Each of the above mentioned 9 pathogens were separately innoculated into 100 ml of potato dextrose (PD) bouillon and shaken at 200 rpm at 25° C. for 7 days. The mycelium was harvested and homogenized for about 10 seconds in a Warring blender and 1-5 ml of the blended mycelium was transferred to petri dishes with a diameter of 14 cm. […] 20 ml of potato dextrose agar (PDA) having a temperature of 45° C. were poured into each of the petri dishes and thorougly mixed with the blended mycelium present therein. When the agar had solidified, wells of a diameter of 4 mm were punched in the agar, and 15 μl of test solutions containing varicus concentrations of compound Ia, Ib and IIa dissolved in ethanol was applied to each well. The plates were incubated for three days at 25° C. and the inhibition zones measured (in mm).
(§4) The experiments were repeated and in the second run, Bc plates were made from Bc spores (the plates were termed Bc2) as such plates may result in a more uniform growth.

[8] = system: Alternaria alternata; test: Agar well inhibition zone, Alternaria alternata (Aa); assay type: cell-based; conditions: 15 μl per well, 3 days at 25° C.; for zone of inhibition at 500 µg/mL: 0.5 mg/ml; for zone of inhibition at 1000 µg/mL: 1.0 mg/ml
Method: Alternaria alternata (Aa) black mould coverings, leaf spot
as §3, §4

[9] = system: plant pathogenic fungi; test: In vitro fungicidal activity spectrum over the pathogens tested; assay type: cell-based
Method: The following pathogens were used:
as §3, §4

[10] = system: Botrytis cinerea; test: Agar well inhibition zone, Botrytis cinerea, mycelium plates (Bc1); assay type: cell-based; design: key to inhibition zone Bc1: clear; diffuse; very diffuse; +: very weak; conditions: 15 μl per well, 3 days at 25° C.
Method: as §2, §1

[11] = system: mouse peritoneal macrophage; test: Mouse peritoneal macrophage assay, chemiluminescence (phagocytosis); assay type: cell-based
[12] = system: Ascochyta pisi; test: Agar well inhibition zone, Ascochyta pisi (Ap); assay type: cell-based; design: key to inhibition zone Ap: clear; diffuse; very diffuse; +: very weak; conditions: 15 μl per well, 3 days at 25° C.; for zone of inhibition at 1000 µg/mL: 1.0 mg/ml
Method: Ascochyta pisi (Ap) leaf, stem and pod rot
as §1

[13] = system: Botrytis cinerea; test: Fungicidal activity in vivo against Botrytis cinerea on sprayed plants; conditions: spray to run off, assessed after 6 days
Method: Activity of the compounds Ia and Ib against Botrytis cinerea Host: Lycopersicon esculentum (tomato, var. First in Field) […] plants (5 weeks old) were sprayed to run off with liquid solutions using a handhold sprayer (Bink Bullows 900). The solution (70% EtOH) had different concentrations of the compounds Ia and Ib. The plants were kept 24 hours in a green house to dry before they were inoculated with a spore suspension containing 1×10^5 spores/ml in 25% grape juice. The inoculation was carried out with a handhold atomizer (Wagner, Pico Bel). The plants were then incubated (16 hours light (1000 lux) and 8 hours dark) at 15°-20° C. in clear polyethylene bags to raise the relative humidity to 95-100%. After 6 days the assessment was done.

[14] = system: nerve growth factor; conditions: cited from earlier work
[15] = Plenodomus lingam, 72 h, read-out: inhibition zone P1
[16] = Neocamarosporium betae, 72 h, 0.1 mg/ml
[17] = 0.1 mg/ml, 15 μl per well, 3 days at 25° C., plates from spores
[18] = Botrytis cinerea, 72 h, 15 μl per well, 3 days at 25° C., plates from spores
[19] = Ascochyta pisi, 72 h, 0.1 mg/ml
[20] = Botrytis cinerea, 72 h, 0.1 mg/ml

| Structure (SMILES) | inhibition zone P1 ([1]; 0.1 mg/ml) | zone of inhibition at 1000 µg/mL [1, 15] [mm] | inhibition zone Ss ([2]; 0.1 mg/ml) | IC50 [3] [µg/mL] | zone of inhibition at 500 µg/mL [4] [mm] | zone of inhibition at 1000 µg/mL [4] [mm] | zone of inhibition at 100 µg/mL [5, 16] [mm] | zone of inhibition at 500 µg/mL ([5]; Neocamarosporium betae, 72 h) [mm] | inhibition zone Mf ([6]; 0.1 mg/ml) | zone of inhibition at 500 µg/mL ([6]; Monilinia fructigena, 72 h) [mm] | zone of inhibition at 1000 µg/mL ([6]; Monilinia fructigena, 72 h) [mm] | inhibition zone Bc2 [7, 17] | appearance of Bc zones [7] | time of incubation after which Bc zones could be seen [7] [days] | zone of inhibition at 500 µg/mL [7, 18] [mm] | zone of inhibition at 1000 µg/mL [7, 18] [mm] | zone of inhibition at 500 µg/mL ([8]; Alternaria alternata, 72 h) [mm] | zone of inhibition at 1000 µg/mL ([8]; Alternaria alternata, 72 h) [mm] | IC50 [11] [µg/mL] | zone of inhibition at 100 µg/mL [12, 19] [mm] | also measured |
| --- | --- | --- | --- | --- | --- | --- | --- | --- | --- | --- | --- | --- | --- | --- | --- | --- | --- | --- | --- | --- | --- |
| C[C@@H]1Cc2cc(O)cc(O)c2C(=O)O[C@H](C)CC(=O)OC[C@@H](O)CC(=O)O[C@H](C)Cc2cc(O)cc(O)c2C(=O)O[C@H](C)CC(=O)O1 [Compound IIa] | 31d mm | 18 | 40d mm | < 10 | 0 | 0 | 0 | 0 | 40v | 40 | 40 | 30d mm | very diffuse | ≥ 3 | 37 | 45 | 0 | 0 | < 10 | 0 | zone of inhibition at 500 µg/mL ([1]; Plenodomus lingam, 72 h, 0.5 mg/ml, read-out: inhibition zone P1): 14 mm; inhibition zone Ss ([2]; 0.5 mg/ml): +; inhibition zone Ss ([2]; 1.0 mg/ml): +; inhibition zone Pt ([4]; 0.1 mg/ml): +; number of pathogens against which compound was active ([9]; with respect to Bc only for the plate containing spores): 5 pathogens; inhibition zone Bc1 ([10]; 0.1 mg/ml): +; inhibition zone Bc1 ([10]; 0.5 mg/ml): +; inhibition zone Bc1 ([10]; 1.0 mg/ml): +; zone of inhibition at 500 µg/mL ([12]; Ascochyta pisi, 72 h, 0.5 mg/ml): 0 mm; zone of inhibition at 1000 µg/mL ([12]; Ascochyta pisi, 72 h): 0 mm |
| C[C@@H]1CC(=O)O[C@H](C)Cc2cc(O)cc(O)c2C(=O)O[C@H](C)CC(=O)O[C@H](C)Cc2cc(O)cc(O)c2C(=O)O[C@H](C)CC(=O)O1 [Compound Ib] | – | 12 | – | 6 (≈ 9.28 µM) | 17 | 33 | 0 | 17 | – | 0 | 25 | – | very clear | ≤ 2 | 26 | 30 | 15 | 17 | 6 (≈ 9.28 µM) | 0 | inhibition zone P1 ([1]; 0.5 mg/ml): +; zone of inhibition at 100 µg/mL ([1]; Plenodomus lingam, 72 h, 0.1 mg/ml, read-out: inhibition zone P1): 0 mm; zone of inhibition at 100 µg/mL ([2]; Sclerotinia sclerotiorum, 72 h, 0.1 mg/ml): 0 mm; zone of inhibition at 500 µg/mL ([2]; Sclerotinia sclerotiorum, 72 h, 0.5 mg/ml): 0 mm; zone of inhibition at 1000 µg/mL ([2]; Sclerotinia sclerotiorum, 72 h, 1.0 mg/ml): 0 mm; zone of inhibition at 100 µg/mL ([4]; 0.1 mg/ml): 0 mm; zone of inhibition at 1000 µg/mL ([5]; Neocamarosporium betae, 72 h, 1.0 mg/ml): 20 mm; zone of inhibition at 100 µg/mL ([6]; Monilinia fructigena, 72 h, 0.1 mg/ml): 0 mm; protection ([13]; 36 ppm): approx. 50%; protection ([13]; 360 ppm): approx. 50%; zone of inhibition at 100 µg/mL ([7]; Botrytis cinerea, 72 h, 0.1 mg/ml, 15 μl per well, 3 days at 25° C., plates from spores): 0 mm; zone of inhibition at 100 µg/mL ([8]; Alternaria alternata, 72 h, 0.1 mg/ml): 0 mm; activity spectrum ([9]; all pathogens tested, Table 2): active, to a higher or lower degree, towards all of the pathogens tested; zone of inhibition at 100 µg/mL [10, 20]: 0 mm; zone of inhibition at 500 µg/mL ([10]; Botrytis cinerea, 72 h, 0.5 mg/ml): 0 mm; zone of inhibition at 1000 µg/mL ([10]; Botrytis cinerea, 72 h, 1.0 mg/ml): 0 mm; inhibition zone Ap ([12]; 0.5 mg/ml): +; zone of inhibition at 1000 µg/mL ([12]; Ascochyta pisi, 72 h): 15 mm |
| C[C@@H]1Cc2cc(O)cc(O)c2C(=O)O[C@H](C)CC(=O)OC[C@@H](O)CC(=O)O[C@H](C)Cc2cc(O)cc(O)c2C(=O)O[C@H](C)CC(=O)O1 [IIIa] | 0 mm | – | 0 mm | – | – | – | – | – | 0 mm | – | – | 0 mm | – | – | – | – | – | – | – | – | zone of inhibition at 100 µg/mL ([4]; 0.1 mg/ml): 0 mm; inhibition zone Pb ([5]; 0.1 mg/ml): 0 mm; inhibition zone Aa ([8]; 0.1 mg/ml): 0 mm; zone of inhibition at 100 µg/mL [10, 20]: 0 mm; inhibition zone Ap ([12]; 0.1 mg/ml): 0 mm |
| CC1Cc2cc(O)cc(O)c2C(=O)OC(C)CC(=O)OC(C)Cc2cc(O)cc(O)c2C(=O)OC(C)CC(=O)OC(CO)CC(=O)O1 (centres unmarked) [NG-012] | – | – | – | – | – | – | – | – | – | – | – | – | – | – | – | – | – | – | – | – | nerve growth factor potentiation [14]: nerve growth factor potentiator |
